The source of these data is patent US7045343B2, “Sterilization indicator test packs” (3M Innovative Properties Company, priority 1998, dated 2006).

In assay [1] the test system is enzyme associated with Bacillus stearothermophilus spores. Description: Rapid enzyme fluorescence readout of dual rapid readout indicators after prevacuum steam sterilization. Conditions: 4-pulse prevacuum steam 121° C. The assay is classed as biochemical. The essentials: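 Bacillus stearothermophilus ATCC 7953 spores were coated with a sterilant-resistant chemical solution and pipetted onto paper strips at about 1×10^6 spores per strip. Each strip sat in a dual rapid readout indicator beside a crushable inner container of nutrient medium holding 4-methylumbelliferyl-alpha-D-glucoside at pH 7.6. Indicators went through a 4-pulse prevacuum steam cycle at 121° C, were activated, incubated at 60° C, and read for fluorescence on a 3M ATTEST Model 190 Rapid Autoreader.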

Assay [2] deals with Bacillus stearothermophilus spores. As to the kind of experiment: Spore outgrowth (color change) of indicators after prevacuum steam sterilization. The assay is classed as cell-based. Conditions: 4-pulse prevacuum steam 121° C. The essentials: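 Bacillus stearothermophilus ATCC 7953 spores were cleaned, mixed into a heated sterilant-resistant coating chemical solution and pipetted onto paper strips at about 1×10^6 spores per strip. The strips were dried and placed in indicators, then exposed to a 4-pulse prevacuum steam cycle at 121° C. After exposure the media ampoule was crushed, and growth was judged visually as a purple-to-yellow color change after 168 hours at 60° C.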

Setting [3] is: Example 1, 5 mg/ml coating, 7–13 min.
The mark [4] stands for this setting: Example 1, 10 mg/ml coating, 7–13 min.
[5] abbreviates: Example 1, 20 mg/ml coating, 7–13 min.
[6] abbreviates: Example 1, 40 mg/ml coating, 7–13 min.
Where [7] appears, read: Example 4, 50 mg/ml coating, 7–18 min.
The mark [8] stands for this setting: Example 4, 100 mg/ml coating, 7–18 min.
The mark [9] stands for this setting: Example 5, 50 mg/ml coating, 7–13 min.

Take Tetraglyceryl Monostearate: the “FLUORESCENCE - PERCENT POSITIVE 1 HR” value in assay [1] (setting [3]), in assay [1] (setting [4]), in assay [1] (setting [5]) and in assay [1] (setting [6]) was 0% in each case. Further, the “FLUORESCENCE - PERCENT POSITIVE 2 HR” value turned out to be 43.2% in assay [1] (setting [3]), 63.0% in assay [1] (setting [4]), 74.3% in assay [1] (setting [5]) and 94.7% in assay [1] (setting [6]). Further, the “FLUORESCENCE - PERCENT POSITIVE 3 HR” value in assay [1] (setting [3]) is reported as 67.6%; in assay [1] (setting [4]), 81.5%; in assay [1] (setting [5]) it was 92.9%; in assay [1] (setting [6]) it was 100.0%. The “FLUORESCENCE - PERCENT POSITIVE 4 HR” value in assay [1] (setting [3]) came out at 83.8%; in assay [1] (setting [4]) it was 94.4%; in assay [1] (setting [5]), 100.0%; in assay [1] (setting [6]), 100.0%. Moreover, the “FLUORESCENCE - PERCENT POSITIVE 5 HR” value in assay [1] (setting [3]) is 94.6%; in assay [1] (setting [4]), 96.3%; in assay [1] (setting [5]), 100.0%; in assay [1] (setting [6]) it was 100.0%. The “FLUORESCENCE - PERCENT POSITIVE 6 HR” value in assay [1] (setting [3]) is on record as 97.3%; in assay [1] (setting [4]), 98.1%; in assay [1] (setting [5]), 100.0%; in assay [1] (setting [6]) it was 100.0%. In addition, the “NO. GROWTH POSITIVE 168 HR” value worked out at 37 in assay [2] (setting [3]), 54 in assay [2] (setting [4]), 70 in assay [2] (setting [5]) and 19 in assay [2] (setting [6]).
For Hexaglyceryl Monolaurate, the “accuracy of sterilization indicators compared to indicators made with untreated spores” value in assay [1] is “improved”. For the same substance, in assay [1] (setting [7]), the “FLUORESCENCE - PERCENT POSITIVE 1 HR” value stood at 0%, the “FLUORESCENCE - PERCENT POSITIVE 2 HR” value was found to be 28.6%, the “FLUORESCENCE - PERCENT POSITIVE 3 HR” value came out at 57.1% and the “FLUORESCENCE - PERCENT POSITIVE 4 HR” value turned out to be 71.4%. Also, in assay [1] (setting [8]), the “FLUORESCENCE - PERCENT POSITIVE 1 HR” value turned out to be 90.0%, the “FLUORESCENCE - PERCENT POSITIVE 2 HR” value was 100.0%, the “FLUORESCENCE - PERCENT POSITIVE 3 HR” value turned out to be 100.0% and the “FLUORESCENCE - PERCENT POSITIVE 4 HR” value is listed as 100.0%. Also, in assay [2] (setting [7]), the “NO. GROWTH POSITIVE 168 HR” value was 7. Also, in assay [2] (setting [8]), the “NO. GROWTH POSITIVE 168 HR” value was found to be 20.
As for Glycereth-7-diisononanoate, in assay [1] (setting [5]), the “FLUORESCENCE - PERCENT POSITIVE 1 HR” value is 0%, the “FLUORESCENCE - PERCENT POSITIVE 2 HR” value was 0%, the “FLUORESCENCE - PERCENT POSITIVE 3 HR” value amounted to 66.7% and the “FLUORESCENCE - PERCENT POSITIVE 4 HR” value was determined as 83.3%. Besides, in assay [1] (setting [5]), the “FLUORESCENCE - PERCENT POSITIVE 5 HR” value is given as 83.3% and the “FLUORESCENCE - PERCENT POSITIVE 6 HR” value is reported as 83.3%. Moreover, in assay [1] (setting [6]), the “FLUORESCENCE - PERCENT POSITIVE 1 HR” value is 0%, the “FLUORESCENCE - PERCENT POSITIVE 2 HR” value is on record as 64.7%, the “FLUORESCENCE - PERCENT POSITIVE 3 HR” value is reported as 88.2% and the “FLUORESCENCE - PERCENT POSITIVE 4 HR” value amounted to 88.2%. Moreover, in assay [1] (setting [6]), the “FLUORESCENCE - PERCENT POSITIVE 5 HR” value amounted to 94.1% and the “FLUORESCENCE - PERCENT POSITIVE 6 HR” value was determined as 100.0%. Moreover, in assay [2] (setting [5]), the “NO. GROWTH POSITIVE 168 HR” value is listed as 6. For the same substance, the “NO. GROWTH POSITIVE 168 HR” value in assay [2] (setting [6]) amounted to 17.
Regarding POE(10) Phytosterol, in assay [1] (setting [9]), the “FLUORESCENCE - PERCENT POSITIVE 1 HR” value is reported as 0%, the “FLUORESCENCE - PERCENT POSITIVE 2 HR” value was 0%, the “FLUORESCENCE - PERCENT POSITIVE 3 HR” value amounted to 0% and the “FLUORESCENCE - PERCENT POSITIVE 4 HR” value is reported as 0%. For the same substance, the “NO. GROWTH POSITIVE 168 HR” value in assay [2] (setting [9]) stood at 2.
